According to US20050059615A1, “Transmucosal dosage forms for brain-targeted steroid chemical delivery systems” (priority 2003, published 2005):

Experiments:
castrated male rats = assay: Male rat sexual (copulatory) behavior after orchidectomy; assay type: in vivo, Sprague Dawley rats
Description: Adult male Sprague Dawley rats (300-400 g) from Charles River Hungary Ltd., Godollo, Hungary, were used. Animals were kept in community cages (4 animals/cage) in a climate-controlled room (23∀2EC), with a 14 hour light, 10 hour dark cycle of artificial lighting, using reversed light/dark cycle. […] These hormones were dissolved in sunflower oil.
After establishment of basal behaviors as discussed below, selected animals were orchidectomized via a single midventral incision and were rehoused.
After repeated testing of animals recovered from orchidectomy as discussed below, rats were divided into four groups and treated intravenously, via a single tail vein injection, with one of the following: group 1: control (27% hydroxypropyl-β-cyclodextrin); group 2: 0.03 mg/kg E2-CDS; group 3: 0.3 mg/kg E2-CDS; and group 4: 3 mg/kg E2-CDS.
Mating was observed during the dark cycle in a plexi observation cage in a room where only a dim red light was on. The male was placed in the observation cage 5 minutes prior to the female.
The following parameters were then measured: • Mount latency (ML): the time from the introduction of the female to the initial mount or intromission; • Intromission latency (IL): the time from introduction of the female to the first intromission; and • Ejaculatory latency (EL): the time from the first intromission to ejaculation.
Sessions were considered negative if IL exceeded 15 minutes.
To establish basal behavior, each male was tested every 5 days until four successive and consistent behavioral patterns were achieved. This pretesting lasted for about four weeks. Approximately half of the animals tested were deemed suitable for orchidectomy.
Twenty-eight days after healing from orchidectomy, the animals were tested again (Day 0) and divided into 4 experimental groups. Only animals displaying ejaculation latencies greater than 15 minutes were included in the study.
Tests of male sexual behavior were conducted 3, 7, 14, 21, 28, 35 and 42 days after drug administration or until the effect disappeared, i.e. until no statistically significant difference was found between groups during two consecutive tests.
Behavioral patterns and related times were recorded manually by skilled observers.
(§1) Behavioral changes were analyzed using the Mann-Whitney U test (Siegel, Nonparametric Statistics for the Behavioral Sciences, New York; McGraw-Hill Book Company, Inc., 1956). The Fisher exact test was used for percentage comparisons (Zar, Biostatistical Analysis, Prentice Hall, Inc., Englewood Cliffs, N.J., 1974). Serum LH data were analyzed for each time and treatment group by analysis of variance (ANOVA) followed by Bonferroni posthoc test.
(§2) The testing described above was repeated using a dose of 0.03 mg/kg administered as a single i.v. injection, and a dose of 0.01 mg/kg with daily i.v. administration for 10 days. E2-CDS stock solution (40%) was diluted in 27% HPβCD solution.
The copulatory behavior of E2-CDS treated groups was compared to that of the HPβCD control group at 1, 3, 7, 14, and 21 days after i.v. drug administration in the 0.03 mg/kg group and at 1, 3, 7, 14 and 21 days after initial i.v. drug administration in the 0.01 mg/kg×10 days group.

FSH [1] = assay: Phase I clinical study: FSH suppression; assay type: in vivo, postmenopausal women; details: for suppression in FSH levels: first 24 hours post-dose, 2.86 mg buccal
Source text: (§3) A brief evaluation of the results follows:

testosterone = assay: Phase I clinical study: serum testosterone; assay type: in vivo, postmenopausal women; details: for testosterone levels exceeding baseline values: 72 hours after the last dose
Source text: as §3

prolactin = assay: Phase I clinical study: prolactin; assay type: in vivo, postmenopausal women
Source text: as §3

FSH [2] = assay: Earlier clinical trial, single 2.5 mg buccal E2-CDS: FSH suppression; assay type: in vivo, postmenopausal women; details: first 24 hour post-dose, 2.5 mg E2-CDS
Source text: as §3

LH = assay: Plasma LH in orchidectomized male rats (radioimmunoassay); assay type: in vivo, Sprague Dawley rats
Description: Four weeks following orchidectomy, groups of rats were treated with one of the following drug doses via tail vein injection: E2-CDS 0.03, 0.3, and 3 mg/kg. Blood samples were collected by orbital sinus puncture under light ether anesthesia. The samples were stored at 4EC for one hour and centrifuged at 1,000 g for 10 minutes. Plasma was separated and stored at −80EC until assayed. Plasma LH concentrations from individual samples were measured by double antibody radioimmunoassay kits obtained from Amersham Pharmacia Biotech, Rome, Italy. […] The limit of detection was 15 pg/mL.
as §1, §2

[3] = 0.01 mg/kg i.v. daily for 10 days
[4] = 0.01 mg/kg i.v. daily for 10 days, by day 14
[5] = 3.0 mg/kg single i.v., days 14, 21 and 28

CN1C=CCC(C(=O)O[C@H]2CC[C@H]3[C@@H]4CCc5cc(O)ccc5[C@H]4CC[C@]23C)=C1 [E2-CDS, 17β-[(1-methyl-1,4-dihydro-3-pyridinyl)carbonyloxy]estra-1,3,5(10)-trien-3-ol]
intromission frequency (castrated male rats; [3]): not increased significantly | intromission latency (castrated male rats; [3]): reduced significantly | mount frequency (castrated male rats; [3]): increased significantly | mount latency (castrated male rats; [3]): reduced significantly | intromission performance restored (% of animals) (castrated male rats; [4]): 50% | mounting performance restored (% of animals) (castrated male rats; [4]): 67% | effect on re-establishment of copulatory behavior (castrated male rats; 0.03 mg/kg single i.v.): no statistically significant effect | sexual activity (castrated male rats; 0.03 mg/kg single i.v., repeated testing): improved sexual activity, but it was not statistically significant | mounting performance restored (% of the animals) (castrated male rats; 0.3 mg/kg single i.v., by day 7): 100% | mount frequency (castrated male rats; 0.3 mg/kg single i.v., day 7): significantly increased | mount latency (castrated male rats; 0.3 mg/kg single i.v., day 7 through day 28): sharply reduced | mounting performance restored (% of the animals) (castrated male rats; 3.0 mg/kg single i.v., by day 14 and day 21): 100% | mount latency (castrated male rats; 3.0 mg/kg single i.v., day 7 through day 28): sharply reduced | intromission performance (castrated male rats; 3.0 mg/kg single i.v., day 14 through day 28): improved in a statistically significant manner | mount frequency (castrated male rats; 3.0 mg/kg single i.v., days 7, 14, 21 and 28): significantly increased | intromission frequency (castrated male rats; [5]): statistically significant increase | intromission latency (castrated male rats; [5]): decrease | post-study FSH levels below screening/baseline values (FSH [1]; 72 hours after the last dose): 14-25% | time of maximum FSH suppression (FSH [1]; Group A): 13.2±5.7 hours post-dose | time of maximum FSH suppression (FSH [1]; Group B): 11.8±5.8 hours post-dose | suppression in FSH levels (FSH [1]; Group A): 15% | suppression in FSH levels (FSH [1]; Group B): 16% | testosterone levels exceeding baseline values (testosterone; Group A): 14% | testosterone levels exceeding baseline values (testosterone; Group B): 28% | mean testosterone AUC24 lower than baseline AUC24 (=C0*24) (testosterone; day 1, Group A): 31.1% | minimum serum testosterone concentration (testosterone; day 1, Group A): 1.3 ± 1.9 ng/dL | time to reach minimum testosterone levels (testosterone; day 1, Group A): 6.5 ± 11.7 h | mean testosterone AUC24 lower than baseline AUC24 (=C0*24) (testosterone; day 1, Group B): 23.0% | minimum serum testosterone concentration (testosterone; day 1, Group B): 4.0 ± 3.9 ng/dL | time to reach minimum testosterone levels (testosterone; day 1, Group B): 7.3 ± 11.3 h | increase in prolactin levels compared to baseline (prolactin; end of the study (day 13), Group A): 29.8% | increase in prolactin levels compared to baseline (prolactin; end of the study (day 16), Group B): 16% | extent of maximum FSH suppression (FSH [2]): 12.5% | plasma LH level (LH; 0.01 mg/kg, 10 daily i.v. injections, day 3 to day 14): significantly reduced | plasma LH levels (LH; 0.03 mg/kg single i.v., first study): not reduced | plasma LH level (LH; 0.03 mg/kg single injection, repeated examination, day 3 only): significantly reduced | plasma LH levels (LH; 0.3 mg/kg single i.v., days 1, 3 and 7): significantly reduced | plasma LH levels (LH; 3 mg/kg single i.v., throughout 28 days): suppressed significantly
